Data from patent US20250325676A1, “CAMPTOTHECIN PRODRUG AND PHARMACEUTICAL COMPOSITION THEREOF” (TIANJIN HEMAY ONCOLOGY PHARMACEUTICAL CO., LTD, priority 2022, published 2025).
Like-named read-outs stand apart in the source and are kept apart here.

Assays:
[1] = tested on: HCT116; assay: In vitro inhibition of human tumor cells, HCT116, MTT method; format: cell-based
Procedure: (§1) The cells were allowed to adhere overnight.
(§2) Adherent cells: Culture medium was aspirated and 100 μl/wells of basal culture (generally refers to medium without fetal bovine serum (FBS) and other additives) containing 0.5 mg/ml MTT were added. The cells were cultured for 3 hours. MTT-containing basal medium was aspirated and 100 μl/wells of DMSO were added to dissolve formazan.
(§3) Unstably adherent cells: Unstably adherent cells were directly added to the MTT solution to achieve the concentration of 0.5 mg/ml and cultured for 3 hours. The ternary solution in an equal volume to the system was added to the system to dissolve the formazan.
(§4) The DMSO concentration was 0.1%.

[2] = tested on: SW620; assay: In vitro inhibition of human tumor cells, SW620, SRB method; format: cell-based
Description: as §1
(§5) Trichloroacetic acid was removed. […] Excess SRB was removed.
as §4

[3] = tested on: LoVo; assay: In vitro inhibition of human tumor cells, LoVo, SRB method; format: cell-based
Description: as §1, §5, §4

[4] = tested on: NCI-N87; assay: In vitro inhibition of human tumor cells, NCI-N87, MTT method; format: cell-based
[5] = tested on: BxPC-3; assay: In vitro inhibition of human tumor cells, BxPC-3, MTT method; format: cell-based
Procedure: as §1, §2, §3, §4

[6] = tested on: NCI-H460; assay: In vitro inhibition of human tumor cells, NCI-H460, MTT method; format: cell-based
Procedure: as §1, §2, §3, §4

[7] = tested on: Fadu; assay: In vitro inhibition of human tumor cells, Fadu, MTT method; format: cell-based
[8] = tested on: human colon cancer HCT116; assay: Growth of human colon cancer HCT116 in allogeneic transplantation model; format: in vivo, nude mice; details: 10 mg/kg i.v. qw × 2
Procedure: (§6) When the tumor volume of the allogeneic transplantation was about 100 to 300 mm^3 and remained stable, the experimental animals were randomly divided into groups according to the size of the tumor volume (day 0) by using a remainder method. The tumor volume was measured 2 to 3 times a week. At the end of the dosage period, the experimental animals were sacrificed. The subcutaneous tumors were peeled and weighed. The anti-tumor activity of the drug against the model was evaluated based on tumor volume and tumor weight-related data.
(§7) The calculation formula of the tumor volume was: Volume=0.5×long diameter×short diameter×short diameter.
(§8) V0 was the resulting tumor volume measured at the time of dosing in groups (i.e., d0) and Vt was the tumor volume at each measurement.
(§9) T was the subject and C is the model control.
(§10) TRTV was the average RTV of the subject, and CRTV was the average RTV of the model control group.
(§11) Wn: average body weight of each group of experimental animals on day n, and W0: average body weight of each group of experimental animals on day 0.

[9] = tested on: human small cell lung cancer NCI-H446; details: 20 mg/kg i.v. qw × 2; NCI-H446 model
Procedure: An allogeneic transplantation model of human small cell lung cancer NCI-H446 was established in nude mice subcutaneously using a tumor block inoculation method. When the tumor volume of the allogeneic transplantation was about 100 to 300 mm^3 and remained stable, the experimental animals were randomly divided into groups according to the size of the tumor volume (day 0, i.e., d0) using a remainder method. The tumor volume was measured 2 to 3 times a week. At the end of the dosage period, the experimental animals were sacrificed. The subcutaneous tumors were peeled and weighed. The anti-tumor activity of the drug against the model was evaluated based on tumor volume and tumor weight-related data.
as §7, §8
(§12) T was the subject and C was the model control.
as §10, §11

[10] = tested on: A375; assay: In vitro inhibition of human tumor cells, A375, SRB method
Procedure: (§13) 1.1.2 Cell culture method: Cells were cultured in complete medium, 37° C., 5% CO2, saturated humidity to log growth phase (adherent cells generally attended to complete fusion), and cells were collected for subsequent experiments (adherent cells were first digested with trypsin/ethylene diamine tetraacetic acid (EDTA) to remove adherent).
(§14) 1.1.3 96-well cell culture plates (hereinafter referred to as 96-well plates) were inoculated with a certain number of cells (see Table 1 for details). The cells were allowed to adhere overnight. […] Finally, the total amount of cell protein in the assay wells was determined by the SRB method, or the cell viability was determined by the MTT method:
(§15) The culture medium was aspirated from the wells and the cells were fixed for 1 hour or more by adding 10% trichloroacetic acid. Trichloroacetic acid was removed. The resultant was washed with H2O and stained with 0.4% SRB for 15 to 30 minutes. Excess SRB was removed. The resultant was washed with 1% acetic acid. The protein-bound SRB was dissolved by adding 10 mM of 100 μl Tris (trishydroxymethylaminomethane). Tests were carried out at the wavelength of 570 nm.
(§16) 1.1.4 dilution and addition of β-glucuronidase: 1 to 2 mg of β-glucuronidase was weighed and dissolved in PBS to give a 2 mg/ml of stock solution. […] 80 μl of enzyme working solution was added to the enzyme-containing assay wells. The amount of β-glucuronidase was 1 μg/wells. No enzyme-containing assay wells were added to the 80 μl of complete medium.
(§17) The assay wells were charged with 20 μl of 10× compound working solution. The final volume was 200 μl per well. The DMSO concentration was 0.1%.
(§18) 1.1.6 Compound inhibition activity calculation: The test included a compound test group, a compound-free positive solvent control group (PC) and a compound-free negative solvent control group (NC). […] The average inhibition rate and the standard deviation (SD) were obtained from the repeated test wells. The average inhibition rate was plotted on the basis of the compound concentration as an abscissa and distributed in the form of logarithms. The curve was fitted to the Logistic 4 parameter equation. […] The test was generally repeated to obtain 3 valid results.

[11] = tested on: 22RV1; assay: In vitro inhibition of human tumor cells, 22RV1, SRB method
Procedure: as §13, §14, §15, §16, §17, §18

[12] = tested on: BEL-7404; assay: In vitro inhibition of human tumor cells, BEL-7404, SRB method
Procedure: as §13, §14, §15, §16, §17, §18

[13] = tested on: MDA-MB-468; assay: In vitro inhibition of human tumor cells, MDA-MB-468, SRB method
Procedure: as §13, §14, §15, §16, §17, §18

[14] = tested on: human pancreatic cancer BxPC-3; assay: Growth of human pancreatic cancer BxPC-3 in allogeneic transplantation model; format: in vivo, nude mice; details: 25 mg/kg i.v. qw × 2, BxPC-3 model
Procedure: as §6, §7, §8, §12, §10, §11
(§19) In the large tumor efficacy test after the second grouping of the G5 group, since the number of samples in each group of G6.1 and G6.4 was less than three, the relevant data of the large tumor efficacy test were statistically analyzed among groups using the T-Test method.

[15] = tested on: human gastric cancer NCI-N87; assay: Growth of human gastric cancer NCI-N87 in allogeneic transplantation model; format: in vivo, nude mice
Procedure: The tumor volume was measured 2 to 3 times per week. […] The subcutaneous tumors were peeled and weighed.
The calculation formula of the tumor volume: Volume=0.5×long diameter×short diameter×short diameter.

[16] = tested on: human pancreatic cancer BxPC-3; details: 30 mg/kg i.v. qw × 2
Procedure: as §6, §7, §8, §12, §10, §11, §19

[17] = tested on: human colon cancer LoVo; details: 30 mg/kg i.v. qw × 2; LoVo model
Procedure: An allogeneic transplantation model of human colon cancer LoVo was established in nude mice subcutaneously using a tumor block inoculation method. When the tumor volume of the allogeneic transplantation was about 100 to 300 mm^3 and kept stable, the experimental animals were randomly divided into groups according to the tumor volume (day 0) by using a remainder method. The tumor volume was measured 2 to 3 times a week. At the end of the dosage period, the experimental animals were sacrificed. The subcutaneous tumors were peeled and weighed. The anti-tumor activity of the drug against the model was evaluated based on tumor volume and tumor weight-related data.
as §7
V0 was the resulting tumor volume measured at the time of dosing in groups (i.e., d0) and Vt is the tumor volume at each measurement.
as §12
TRTV was the average RTV of the subject and CRTV was the average RTV of the model control group.
as §11

[18] = tested on: human colon cancer SW620; details: 30 mg/kg i.v. qw × 2; SW620 model
Procedure: An allogeneic transplantation model of human colon cancer SW620 was established in nude mice subcutaneously using a tumor block inoculation method. When the tumor volume of the allogeneic transplantation was about 100 to 300 mm^3 and remained stable, the experimental animals were randomly divided into groups according to the size of the tumor volume (day 0) by using a remainder method. The tumor volume was measured 2 to 3 times a week. At the end of the dosage period, the experimental animals were sacrificed. The subcutaneous tumors were peeled and weighed. The anti-tumor activity of the drug against the model was evaluated based on tumor volume and tumor weight-related data.
as §7, §8, §9
TRTV was the average value of RTV of the subject, and CRTV was the average RTV of the model control group.
as §11

[19] = No βGU (direct effects of compound on cells)
[20] = BxPC-3 large tumors after irinotecan

Substance	IC50 ([1]; Adding βGU (β-glucuronidase))	IC50 [1, 19]	IC50 ([2]; Adding βGU)	IC50 ([2]; No βGU)	IC50 ([3]; Adding βGU)	IC50 ([3]; No βGU)	IC50 ([4]; Adding βGU)	IC50 ([4]; No βGU)	IC50 ([5]; Adding βGU)	IC50 ([5]; No βGU)	IC50 ([7]; Adding βGU)	IC50 ([7]; No βGU)	IC50 ([10]; Adding βGU)	IC50 ([10]; No βGU)	IC50 ([11]; Adding βGU)	IC50 ([11]; No βGU)	IC50 ([12]; Adding βGU)	IC50 ([12]; No βGU)	IC50 ([13]; Adding βGU)	IC50 ([13]; No βGU)	further results
(2S,3S,4S,5R,6S)-6-(3-((1-(2-(2-(2-((4′-((E)-(8-amino-1-hydroxy-5,7-disulfononaphthalen-2-yl)diazenyl)-3,3′-dimethoxy-[1,1′-biphenyl]-4-yl)amino)-2-oxoethoxy)ethoxy)ethyl)-1H-1,2,3-triazol-4-yl)methoxy)-4-(((S)-4,11-diethyl-4-hydroxy-3,14-dioxo-3,4,12,14-tetrahydro-1H-pyrano[3′,4′:6,7]indolazino[1,2-b]quinolin-9-yl)oxy)methyl)phenoxy)-3,4,5-trihydroxytetrahydro-2H-pyran-2-carboxylate trisodium [Example 61]	0.0054 µM	0.22 µM	0.0026 µM	0.283 µM	0.0059 µM	0.244 µM	0.033 µM	0.395 µM	0.0071 µM	0.915 µM	0.015 µM	0.498 µM	0.0125 µM	0.782 µM	0.0084 µM	0.225 µM	0.04 µM	0.565 µM	0.0065 µM	0.212 µM	IC50 ([6]; Adding βGU): 0.0086 µM; IC50 ([6]; No βGU): 0.518 µM; T/C (%) [8]: 27.2%; Tumor inhibition rate (%) [8]: 76.8%; Relative volume RTV (X ± S.D.) [9]: 0.25 ± 0.25; T/C (%) [9]: 3.7%; Tumor inhibition rate (%) [9]: 96.0%; Tumor weight (g, X ± S.D.) [9]: 0.039 ± 0.049 g
(2S,3S,4S,5R,6S)-6-(3-((1-(5-((4′-((E)-(8-amino-1-hydroxy-5,7-disulfonicnaphthalen-2-yl)diazenyl)-3,3′-dimethyl-[1,1′-biphenyl]-4-yl)amino)-5-oxopentyl)-1H-1,2,3-triazol-4-yl)methoxy)-4-((((S)-4,11-diethyl-4-hydroxy-3,14-dioxy-3,4,12,14-tetrahydro-1H-pyrano[3′,4′:6,7]indolazino[1,2-b]quinolin-9-yl)oxy)methyl)phenoxy)-3,4,5-trihydroxytetrahydro-2H-pyran-2-carboxylate trisodium [Example 85]	–	–	–	–	–	–	0.031 µM	0.178 µM	–	–	0.015 µM	0.706 µM	0.019 µM	0.864 µM	0.009 µM	0.248 µM	0.05 µM	0.721 µM	0.0097 µM	0.071 µM	Relative volume RTV (X ± S.D.) [14]: 0.23 ± 0.05; T/C (%) [14]: 4.8%; Tumor inhibition rate (%) [14]: 97.2%; Tumor weight (g, X ± S.D.) [14]: 0.047 ± 0.027 g; Final body weight change (%) ([14]; nude mouse): 4.0%; Relative volume RTV (X ± S.D.) ([15]; 20 mg/kg i.v. qw × 2): 0.67 ± 0.24; T/C (%) ([15]; 20 mg/kg i.v. qw × 2): 13.0%; Tumor inhibition rate (%) ([15]; 20 mg/kg i.v. qw × 2): 93.6%; Tumor weight (g, X ± S.D.) ([15]; 20 mg/kg i.v. qw × 2): 0.076 ± 0.014 g; Final body weight change (%) ([15]; 20 mg/kg i.v. qw × 2, nude mouse): 10.0%; Relative volume RTV (X ± S.D.) [16, 20]: 0.48 ± 0.11; T/C (%) [16, 20]: 13.7%; Tumor inhibition rate (%) [16, 20]: 90.0%; Tumor weight (g, X ± S.D.) [16, 20]: 0.301 ± 0.051 g; Final body weight change (%) ([16]; BxPC-3 tumors more than 600 mm^3 after irinotecan 100 mg/kg i.p. qw × 2): 0.4%
4-amino-6-((E)-(4′-(6-(4-((2-(((S)-4,11-diethyl-4-hydroxy-3,14-dioxy-3,4,12,14-tetrahydro-1H-pyrano[3′,4′:6,7]indolazo[1,2-b]quinolin-9-yl)oxy)methyl)-5-(((2S,3R,4S,5 S,6S)-3,4,5-trihydroxy-6-(methoxycarbonyl)tetrahydro-2H-pyran-2-yl)oxy)phenoxy)methyl)-1H-1,2,3-triazol-1-yl)hexanamido)-3,3′-dimethyl-[1,1′-biphenyl]-4-yl)diazenyl)-5-hydroxynaphthalene-1,3-disulfonate disodium [Example 21]	0.035 µM	0.244 µM	0.023 µM	0.764 µM	0.045 µM	0.72 µM	–	–	0.062 µM	0.688 µM	0.0098 µM	0.298 µM	0.0088 µM	0.556 µM	0.0145 µM	0.399 µM	0.028 µM	0.439 µM	0.042 µM	0.177 µM	IC50 ([6]; Adding βGU): 0.08 µM; IC50 ([6]; No βGU): 0.77 µM; T/C (%) [17]: 9.8%; Tumor inhibition rate (%) [17]: 93.1%; T/C (%) [18]: 0.5%; Tumor inhibition rate (%) [18]: 99.8%
(2S,3S,4S,5R,6S)-6-(3-((1-(6-((4′-((E)-(8-amino-1-hydroxy-5,7-disulfonicnaphthalen-2-yl)diazenyl)-[1,1′-biphenyl]-4-yl)amino)-6-oxohexyl)-1H-1,2,3-triazol-4-yl)methoxy)-4-((((S)-4,11-diethyl-4-hydroxy-3,14-dioxo-3,4,12,14-tetrahydro-1H-pyrano[3′,4′:6,7]indolazino[1,2-b]quinolin-9-yl)oxy)methyl)phenoxy)-3,4,5-trihydroxytetrahydro-2H-pyran-2-carboxylate trisodium [Example 78]	0.0024 µM	0.042 µM	0.0073 µM	0.329 µM	0.011 µM	0.301 µM	0.026 µM	0.17 µM	0.013 µM	0.61 µM	0.0069 µM	0.346 µM	0.022 µM	0.984 µM	0.0076 µM	0.267 µM	0.035 µM	0.458 µM	0.0033 µM	0.028 µM	IC50 ([6]; Adding βGU): 0.0096 µM; IC50 ([6]; No βGU): 0.53 µM; T/C (%) [17]: 15.8%; Tumor inhibition rate (%) [17]: 88.2%; T/C (%) [18]: 0.6%; Tumor inhibition rate (%) [18]: 99.4%
